The source of these data is US12344584B2, “KCNQ potentiators” (Eli Lilly and Company, priority 2019, dated 2025).

Where two headings read alike, the source gives them in different places.

Experiment [1] has as its system motor neurons derived from ALS patient iPSC line with pathogenic mutation in TARDBP. In words: Optopatch excitability assay in motor neurons derived from ALS patient iPSC line (TARDBP mutation). Format: cell-based, human. Conditions: Homo sapiens, iPSC, TARDBP line, blue LED 5.1 mW/cm^2, mean, read-out: EC50, inhibition of excitability (action potential frequency). From the text:
(§1) Optopatch Excitability Assay for Example 1 in Motor Neurons Derived From ALS Patient iPSC Lines
(§2) Altered excitability of cortical neurons and lower motor neuron is an important factor in the pathophysiology of ALS (See, for example, K. Kanai, et. al., J Neurol Neurosurg Psychiatry, 83, 734-738 (2012); P. Menon, et. al., Eur Neurol., 24, 816-824 (2017)). All-optical electrophysiology (“Optopatch”) was used to evaluate excitability in cultured motor neurons derived from iPSC lines from two ALS patients with different pathogenic mutations.
(§3) Cell Culture: The two iPSC lines are derived from one patient with a pathogenic mutation in TARDBP and one patient with a pathogenic repeat expansion mutation in C9orf72, respectively. Motor neurons are generated from these lines by a 2D differentiation method adapted from the dual SMAD inhibition neuronal patterning protocol (See S. M. Chambers, et. al., Nat Biotechnol., 27, 275-280 (2009)) by inclusion of motor neuron morphogens. Differentiation is verified by visual inspection, karyotyping and staining for beta-III-tubulin and the nuclear motor neuron marker ISL1. Neurons are cultured on a monolayer of mouse glia in mTeSR (Stem Cell Technologies), supplemented with 10 ng/mL BDNF. Forty-eight hours prior to imaging, 100 nM trans-retinal was added to the medium.
(§4) Transduction with Optopatch vectors: At 15 days in vitro, cultured motor neurons are transduced with a lentiviral vector to drive the co-expression of the actuator CheRiff-mOrange2 and the voltage indicator QuasAr3-Citrine (for details see D. R. Hochbaum, et. al., Nat. Methods, 11, 825-833 (2014)). Forty-eight hours prior to imaging, 100 nM trans-retinal was added to the medium.
Solutions: Recordings are performed in Brainphys™ imaging buffer with 3 mM potassium. The gap junction blocker 2-aminoethoxydiphenyl borate (50 μM) is added to eliminate electrical coupling between cells, and NBQX (10 μM), gabazine (20 μM), and AP5 (25 μM) were used to block synaptic transmission.
Optopatch Recordings: Five days after transduction, Optopatch imaging is performed on a custom, ultra-widefield fluorescence microscope at RT. Motor neurons are illuminated with red laser excitation (200 W/cm^2; 635 nm) to monitor changes in QuasAr fluorescence and blue LED excitation (0-127 mW/cm^2, 470 nm) to depolarize the cell membrane with CheRiff. A custom blue light stimulus protocol is used consisting of: i) 2 sec of red illumination only to monitor spontaneous activity, ii) 5×500 msec steps of increasing blue light intensity and iii) 2×2 sec linearly increasing blue light ramps, each with a different maximum blue intensity. Optopatch data are recorded using a Hamamatsu ORCA-Flash 4.0 sCMOS camera with a 1 kHz frame rate. The field of view size is 4 mm×0.5 mm. Custom control software written in MATLAB is used to control illumination protocols and record all movies. To examine acute effects of Kv7.2/7.3 potentiators, neurons are incubated with test compound for 15 min prior to imaging.
Data Analysis: Image segmentation analysis is performed using temporal Principle Component Analysis and spatial-temporal Independent Component Analysis to isolate individual neurons. A spike-finding algorithm is used to find action potentials, and data are analyzed for compound effects on mean firing rate, adaptation, rheobase and action potential waveform shape by comparing to vehicle controls (for detail, see C. A. Werley, et. al., Curr. Protoc. Pharmacol., 78, 11.20.1-11.20.24. (2017)).
Subjected to the protocol described above, the primary effect of the Example 1 is on the action potential firing rate in response to low intensity blue light illumination.
Fitting a 4-parameter logistic equation to the data may be used to determine the potency (EC50) of the effect of Example 1 on action potential frequency. Results are shown in Table 1 for two separate differentiation efforts each for the lines derived from the patients carrying the TARDBP and C9orf72 mutations.

For experiment [2], the system named is motor neurons derived from ALS patient iPSC line with pathogenic repeat expansion mutation in C9orf72. In words: Optopatch excitability assay in motor neurons derived from ALS patient iPSC line (C9orf72 repeat expansion). Format: cell-based. Conditions: Homo sapiens, read-out: EC50, inhibition of excitability (action potential frequency).
From the text: as §1, §2, §3, §4
Solutions: Recordings are performed in Brainphys™ imaging buffer with 3 mM potassium. […]
Optopatch Recordings: Five days after transduction, Optopatch imaging is performed on a custom, ultra-widefield fluorescence microscope at RT. Motor neurons are illuminated with red laser excitation (200 W/cm^2; 635 nm) to monitor changes in QuasAr fluorescence and blue LED excitation (0-127 mW/cm^2, 470 nm) to depolarize the cell membrane with CheRiff. […] Optopatch data are recorded using a Hamamatsu ORCA-Flash 4.0 sCMOS camera with a 1 kHz frame rate. […]
Data Analysis: Image segmentation analysis is performed using temporal Principle Component Analysis and spatial-temporal Independent Component Analysis to isolate individual neurons. A spike-finding algorithm is used to find action potentials, and data are analyzed for compound effects on mean firing rate, adaptation, rheobase and action potential waveform shape by comparing to vehicle controls (for detail, see C. A. Werley, et. al., Curr. Protoc. Pharmacol., 78, 11.20.1-11.20.24. (2017)). […]

Consider `CCOC(=O)Nc1ccc(NCc2ccc(F)cc2)nc1N` [Flupirtine, flupirtine, reference compound], for which the EC50 in experiment [1] (Diff 1) was 1150 nM; in experiment [1] (Diff 2), 840 nM; in experiment [2] (Diff 1, blue LED 5.1 mW/cm^2, mean) it was 1660 nM; in experiment [2] (Diff 2, blue LED 5.1 mW/cm^2, mean), 1350 nM.

As usually defined, the EC50 is the concentration that produces a half-maximal response.
